In brackets after ≈: the same amount, converted by molar mass. Each block holds one compound with its values, some of them ahead of it. Activity calls are given as the source filed them. The calls are words filed in the database; no cut-off is given here.
What was measured:
Rattus norvegicus [1] = test: Hypophagic effect in fasted male Sprague-Dawley rat assessed as inhibition of food intake at 10 mg/kg, po measured after 1 hr relative to control; type: functional; settings: for inhibition (INH): 10 mg/kg
[2] = Drug concentration in plasma of fasted male Sprague-Dawley rat assessed as inhibition of food intake at 10 mg/kg, po measured after 1 hr relative to control; type: organism-based
Rattus norvegicus [3] = test: Hypophagic effect in fasted male Sprague-Dawley rat assessed as effective dose administered orally measured after 1 hr relative to control; type: functional; settings: route po
Rattus norvegicus [4] = test: Hypophagic effect in fasted male Sprague-Dawley rat assessed as inhibition of food intake at 5 mg/kg, po measured after 1 hr relative to control; type: functional
[5] = Drug concentration in brain of fasted male Sprague-Dawley rat assessed as inhibition of food intake at 10 mg/kg, po measured after 1 hr relative to control; type: organism-based; settings: read-out: Ct
[6] = Unbound fraction in brain of fasted male Sprague-Dawley rat at 10 mg/kg, po; type: ADME, organism-based; settings: in vivo
[7] = Tmax in dog at 5 mg/kg, po; type: ADME, organism-based, Canis lupus familiaris; settings: in vivo
[8] = Renal clearance in dog at 2 mg/kg, iv; type: ADME, organism-based, Canis lupus familiaris; settings: in vivo
[9] = Clearance in Cynomolgus monkey at 2 mg/kg, iv; type: ADME, organism-based, Macaca fascicularis; settings: in vivo
[10] = Clearance in rat at 2 mg/kg, iv; type: ADME, organism-based; settings: in vivo
[11] = Oral bioavailability in mouse at 5 mg/kg; type: ADME, organism-based; settings: in vivo
[12] = Renal clearance in rat at 2 mg/kg, iv; type: ADME, organism-based; settings: in vivo
[13] = Volume of distribution at steady state in Cynomolgus monkey at 2 mg/kg, iv; type: ADME, organism-based, Macaca fascicularis; settings: in vivo, read-out: Vdss
[14] = Volume of distribution at steady state in dog at 2 mg/kg, iv; type: ADME, organism-based, Canis lupus familiaris; settings: in vivo, read-out: Vdss
[15] = AUC (0 to infinity) in dog at 5 mg/kg, po; type: ADME, organism-based, Canis lupus familiaris; settings: in vivo
[16] = Half life in dog at 5 mg/kg, po; type: ADME, organism-based, Canis lupus familiaris; settings: in vivo
[17] = Cmax in Cynomolgus monkey at 5 mg/kg, po; type: ADME, organism-based, Macaca fascicularis; settings: in vivo
[18] = Volume of distribution at steady state in rat at 2 mg/kg, iv; type: ADME, organism-based; settings: in vivo, read-out: Vdss
[19] = Stability in microsomes (unknown origin); type: ADME, Microsome
[20] = Tmax in mouse at 5 mg/kg, po; type: ADME, organism-based; settings: in vivo
[21] = Clearance in mouse at 2 mg/kg, iv; type: ADME, organism-based; settings: in vivo
[22] = Tmax in rat at 5 mg/kg, po; type: ADME, organism-based; settings: in vivo
[23] = Half life in rat at 5 mg/kg, po; type: ADME, organism-based; settings: in vivo
[24] = Volume of distribution at steady state in mouse at 2 mg/kg, iv; type: ADME, organism-based; settings: in vivo, read-out: Vdss
[25] = Oral bioavailability in dog at 5 mg/kg; type: ADME, organism-based, Canis lupus familiaris; settings: in vivo
[26] = AUC (0 to infinity) in dog at 2 mg/kg, iv; type: ADME, organism-based, Canis lupus familiaris; settings: in vivo
[27] = Cmax in mouse at 5 mg/kg, po; type: ADME, organism-based; settings: in vivo
[28] = Half life in rat at 2 mg/kg, iv; type: ADME, organism-based; settings: in vivo
[29] = AUC (0 to infinity) in Cynomolgus monkey at 5 mg/kg, po; type: ADME, organism-based, Macaca fascicularis; settings: in vivo
[30] = Half life in Cynomolgus monkey at 2 mg/kg, iv; type: ADME, organism-based, Macaca fascicularis; settings: in vivo
[31] = Unbound fraction in plasma of fasted male Sprague-Dawley rat at 10 mg/kg, po; type: ADME, organism-based
[32] = Half life in dog at 2 mg/kg, iv; type: ADME, organism-based, Canis lupus familiaris; settings: in vivo
[33] = Stability in hepatocytes (unknown origin); type: ADME, cell-based, Hepatocyte
[34] = Tmax in Cynomolgus monkey at 5 mg/kg, po; type: ADME, organism-based, Macaca fascicularis; settings: in vivo
[35] = Basicity constant, pKa of compound; type: physicochemical
[36] = Water solubility of compound; type: physicochemical; settings: buffer
[37] = Cmax in dog at 5 mg/kg, po; type: ADME, organism-based, Canis lupus familiaris; settings: in vivo
[38] = Half life in mouse at 2 mg/kg, iv; type: ADME, organism-based; settings: in vivo
[39] = AUC (0 to infinity) in mouse at 2 mg/kg, iv; type: ADME, organism-based; settings: in vivo
[40] = Oral bioavailability in Cynomolgus monkey at 5 mg/kg; type: ADME, organism-based, Macaca fascicularis; settings: in vivo
[41] = Cmax in rat at 5 mg/kg, po; type: ADME, organism-based; settings: in vivo
[42] = Renal clearance in Cynomolgus monkey at 2 mg/kg, iv; type: ADME, organism-based, Macaca fascicularis; settings: in vivo, iv, 2 mg/kg
[43] = AUC (0 to infinity) in rat at 2 mg/kg, iv; type: ADME, organism-based; settings: in vivo
[44] = Clearance in dog at 2 mg/kg, iv; type: ADME, organism-based, Canis lupus familiaris; settings: in vivo
[45] = AUC (0 to infinity) in Cynomolgus monkey at 2 mg/kg, iv; type: ADME, organism-based, Macaca fascicularis; settings: in vivo
[46] = AUC (0 to infinity) in rat at 5 mg/kg, po; type: ADME, organism-based; settings: in vivo
[47] = AUC (0 to infinity) in mouse at 5 mg/kg, po; type: ADME, organism-based; settings: in vivo
[48] = Half life in Cynomolgus monkey at 5 mg/kg, po; type: ADME, organism-based, Macaca fascicularis; settings: in vivo
[49] = Half life in mouse at 5 mg/kg, po; type: ADME, organism-based; settings: in vivo
Rattus norvegicus [50] = test: Hypophagic effect in fasted male Sprague-Dawley rat at 10 mg/kg, po measured after 1 hr in presence of SB242084; type: functional, organism-based

Structure (SMILES): CNC(=O)c1ccc2c3c1C(CC(F)(F)F)CN3CCNC2 (single isomer, unassigned; (-))
inhibition (INH) (Rattus norvegicus [1]): 0%

concentration at 1 h [2]: 1660 ng/mL
concentration at 1 h [5]: 440 ng/g
Structure (SMILES): CNC(=O)c1ccc2c3c1C(CC(F)(F)F)CN3CCNC2 (single isomer, unassigned; (+))
ED50 (Rattus norvegicus [3]): 5.2 mg/kg
inhibition in vivo at 5 mg/kg (Rattus norvegicus [4]): 41%
inhibition (INH) (Rattus norvegicus [1]): 83%

Fu [6]: 75%
Tmax [7]: 0.92 h
CL renal [8]: 1.17 mL/min/kg
clearance [9]: 16.7 mL/min/kg
clearance [10]: 44.3 mL/min/kg
bioavailability [11]: 85.6%
CL renal [12]: 24 mL/min/kg
Vd [13]: 1.8 L/kg
Vd [14]: 1.41 L/kg
AUC(0-inf) [15]: 4130 ng·h/mL
half-life [16]: 1.9 h
Cmax [17]: 700 ng/mL
Vd [18]: 1.89 L/kg
Stability [19]: Stable
Tmax [20]: 0.25 h
clearance [21]: 99 mL/min/kg
Tmax [22]: 0.58 h
half-life [23]: 1.51 h
Vd [24]: 2.44 L/kg
bioavailability [25]: 90.2%
AUC(0-inf) [26]: 1830 ng·h/mL
Cmax [27]: 940 ng/mL
half-life [28]: 0.56 h
AUC(0-inf) [29]: 3580 ng·h/mL
half-life [30]: 1.49 h
fraction unbound [31]: 0.87
half-life [32]: 1.38 h
Stability [33]: Stable
Tmax [34]: 2.33 h
pKa [35]: 7.93
solubility [36]: 91 mg/mL (≈ 393 mM)
Cmax [37]: 1820 ng/mL
half-life [38]: 0.41 h
AUC(0-inf) [39]: 340 ng·h/mL
bioavailability [40]: 71.2%
Cmax [41]: 570 ng/mL
CL [42]: 4.5 mL/min/kg
AUC(0-inf) [43]: 770 ng·h/mL
clearance [44]: 18.3 mL/min/kg
AUC(0-inf) [45]: 2000 ng·h/mL
AUC(0-inf) [46]: 2020 ng·h/mL
AUC(0-inf) [47]: 720 ng·h/mL
half-life [48]: 2.07 h
half-life [49]: 0.6 h
Structure (SMILES): CNC(=O)c1ccc2c3c1CCN3CCNC2
ED50 (Rattus norvegicus [3]): 6.4 mg/kg
inhibition in vivo at 10 mg/kg (Rattus norvegicus [1]; Rattus norvegicus, Sprague-Dawley, po): 87%
Activity (Rattus norvegicus [50]): inactive

concentration at 1 h [2]: 1010 ng/mL
concentration at 1 h [5]: 222 ng/g
Structure (SMILES): CCC1CN2CCNCc3ccc(C(=O)NC)c1c32 (single isomer, unassigned; (+))
ED50 (Rattus norvegicus [3]): 6.4 mg/kg
inhibition (INH) (Rattus norvegicus [1]): 63%
